Results: ChEMBL document CHEMBL5058641, “Data for DCP probe TP-050” (2022)

Legend:
[1] = biological target: 5-hydroxytryptamine receptor 1A (Homo sapiens) (UniProt P08908); details: Compound concentration 10.0 uM
[2] = biological target: Alpha-1D adrenergic receptor (Homo sapiens) (UniProt P25100); details: Compound concentration 10.0 uM
[3] = biological target: 5-hydroxytryptamine receptor 2A (Homo sapiens, UniProt P28223); details: Compound concentration 10.0 uM
[4] = biological target: Sigma intracellular receptor 2 (Homo sapiens) (UniProt Q5BJF2); details: Compound concentration 10.0 uM
[5] = biological target: 5-hydroxytryptamine receptor 2B (Homo sapiens, UniProt P41595); details: Compound concentration 10.0 uM
[6] = biological target: Beta-3 adrenergic receptor (Homo sapiens) (UniProt P13945); details: Compound concentration 10.0 uM
Chain of Beta-3 adrenergic receptor (Homo sapiens) (P13945 whole entry, looked up): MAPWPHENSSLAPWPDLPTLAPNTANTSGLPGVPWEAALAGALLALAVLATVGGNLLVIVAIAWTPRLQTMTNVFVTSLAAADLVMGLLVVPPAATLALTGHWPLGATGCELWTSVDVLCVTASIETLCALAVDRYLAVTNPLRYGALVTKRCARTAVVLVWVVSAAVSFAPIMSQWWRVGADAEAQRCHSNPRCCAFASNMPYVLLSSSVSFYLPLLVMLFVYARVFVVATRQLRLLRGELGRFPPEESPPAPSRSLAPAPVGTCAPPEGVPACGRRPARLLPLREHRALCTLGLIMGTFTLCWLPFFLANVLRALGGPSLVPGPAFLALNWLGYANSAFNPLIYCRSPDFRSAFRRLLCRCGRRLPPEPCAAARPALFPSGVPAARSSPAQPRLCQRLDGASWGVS

[7] = biological target: Muscarinic acetylcholine receptor M4 (Homo sapiens) (UniProt P08173); details: Compound concentration 10.0 uM
[8] = biological target: D(3) dopamine receptor (Homo sapiens) (UniProt P35462); details: Compound concentration 10.0 uM
[9] = biological target: D(4) dopamine receptor (Homo sapiens) (UniProt P21917); details: Compound concentration 10.0 uM
Chain of D(4) dopamine receptor (Homo sapiens) (P21917 whole entry): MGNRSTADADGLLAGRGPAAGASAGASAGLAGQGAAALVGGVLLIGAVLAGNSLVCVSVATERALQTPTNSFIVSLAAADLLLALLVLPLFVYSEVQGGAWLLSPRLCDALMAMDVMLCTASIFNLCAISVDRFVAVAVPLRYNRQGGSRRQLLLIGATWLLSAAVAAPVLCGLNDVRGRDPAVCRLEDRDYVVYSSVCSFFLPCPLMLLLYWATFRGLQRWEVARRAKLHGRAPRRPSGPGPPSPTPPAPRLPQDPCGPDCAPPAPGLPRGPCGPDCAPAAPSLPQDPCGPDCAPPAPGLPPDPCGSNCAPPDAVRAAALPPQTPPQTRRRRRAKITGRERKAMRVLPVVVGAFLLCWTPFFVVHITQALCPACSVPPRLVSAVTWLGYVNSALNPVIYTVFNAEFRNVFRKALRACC

[10] = biological target: Muscarinic acetylcholine receptor M1 (Homo sapiens) (UniProt P11229); details: Compound concentration 10.0 uM
[11] = biological target: T1, Sodium-dependent dopamine transporter (Homo sapiens, UniProt Q01959); details: Compound concentration 10.0 uM
T1 sequence (Q01959 whole entry): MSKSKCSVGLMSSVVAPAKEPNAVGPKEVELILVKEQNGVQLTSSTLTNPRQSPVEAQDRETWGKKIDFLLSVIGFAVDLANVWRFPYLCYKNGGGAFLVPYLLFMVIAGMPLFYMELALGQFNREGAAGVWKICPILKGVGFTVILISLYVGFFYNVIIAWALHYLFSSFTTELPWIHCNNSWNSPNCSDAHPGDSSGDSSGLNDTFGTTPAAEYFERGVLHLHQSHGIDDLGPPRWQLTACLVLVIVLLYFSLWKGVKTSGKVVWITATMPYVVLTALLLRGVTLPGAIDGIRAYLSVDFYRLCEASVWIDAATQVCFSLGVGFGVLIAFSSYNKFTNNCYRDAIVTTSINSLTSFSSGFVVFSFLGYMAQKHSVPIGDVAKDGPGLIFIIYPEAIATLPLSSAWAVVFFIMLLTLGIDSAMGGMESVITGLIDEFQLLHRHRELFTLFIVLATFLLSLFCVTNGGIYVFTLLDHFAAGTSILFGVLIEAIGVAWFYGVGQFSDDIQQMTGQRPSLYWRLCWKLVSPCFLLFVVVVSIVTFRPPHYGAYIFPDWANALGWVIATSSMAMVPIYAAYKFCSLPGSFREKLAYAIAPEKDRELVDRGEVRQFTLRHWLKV

[12] = biological target: Histamine H4 receptor (Homo sapiens) (UniProt Q9H3N8); details: Compound concentration 10.0 uM
[13] = biological target: 5-hydroxytryptamine receptor 1D (Homo sapiens, UniProt P28221); details: Compound concentration 10.0 uM
[14] = biological target: 5-hydroxytryptamine receptor 5A (Homo sapiens) (UniProt P47898); details: Compound concentration 10.0 uM
Chain of 5-hydroxytryptamine receptor 5A (Homo sapiens) (P47898 whole entry): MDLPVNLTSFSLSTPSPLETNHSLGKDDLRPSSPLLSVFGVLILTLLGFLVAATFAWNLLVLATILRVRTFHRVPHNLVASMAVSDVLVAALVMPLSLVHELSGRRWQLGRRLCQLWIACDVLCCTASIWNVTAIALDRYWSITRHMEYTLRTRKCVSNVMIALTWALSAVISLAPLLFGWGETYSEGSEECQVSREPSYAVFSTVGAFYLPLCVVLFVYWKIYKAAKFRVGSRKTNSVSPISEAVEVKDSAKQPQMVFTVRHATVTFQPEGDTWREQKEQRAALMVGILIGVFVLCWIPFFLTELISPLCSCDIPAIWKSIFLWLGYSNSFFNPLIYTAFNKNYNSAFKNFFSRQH

[15] = biological target: Histamine H3 receptor (Homo sapiens) (UniProt Q9Y5N1); details: Compound concentration 10.0 uM
Chain of Histamine H3 receptor (Homo sapiens) (Q9Y5N1 whole entry): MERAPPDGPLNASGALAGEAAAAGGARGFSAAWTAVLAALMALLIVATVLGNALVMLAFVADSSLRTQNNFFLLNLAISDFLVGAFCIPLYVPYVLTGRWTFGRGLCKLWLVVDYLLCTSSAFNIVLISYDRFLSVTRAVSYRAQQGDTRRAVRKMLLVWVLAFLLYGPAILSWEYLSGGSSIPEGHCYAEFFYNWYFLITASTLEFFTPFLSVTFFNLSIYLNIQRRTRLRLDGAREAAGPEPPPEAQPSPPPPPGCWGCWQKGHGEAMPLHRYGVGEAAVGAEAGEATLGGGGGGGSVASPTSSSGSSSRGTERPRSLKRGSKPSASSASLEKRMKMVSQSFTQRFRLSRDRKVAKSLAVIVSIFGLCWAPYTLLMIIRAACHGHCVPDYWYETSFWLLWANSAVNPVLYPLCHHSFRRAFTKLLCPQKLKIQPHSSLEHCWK

[16] = biological target: 5-hydroxytryptamine receptor 2C (Homo sapiens) (UniProt P28335); details: Compound concentration 10.0 uM
Chain of 5-hydroxytryptamine receptor 2C (Homo sapiens) (P28335 whole entry): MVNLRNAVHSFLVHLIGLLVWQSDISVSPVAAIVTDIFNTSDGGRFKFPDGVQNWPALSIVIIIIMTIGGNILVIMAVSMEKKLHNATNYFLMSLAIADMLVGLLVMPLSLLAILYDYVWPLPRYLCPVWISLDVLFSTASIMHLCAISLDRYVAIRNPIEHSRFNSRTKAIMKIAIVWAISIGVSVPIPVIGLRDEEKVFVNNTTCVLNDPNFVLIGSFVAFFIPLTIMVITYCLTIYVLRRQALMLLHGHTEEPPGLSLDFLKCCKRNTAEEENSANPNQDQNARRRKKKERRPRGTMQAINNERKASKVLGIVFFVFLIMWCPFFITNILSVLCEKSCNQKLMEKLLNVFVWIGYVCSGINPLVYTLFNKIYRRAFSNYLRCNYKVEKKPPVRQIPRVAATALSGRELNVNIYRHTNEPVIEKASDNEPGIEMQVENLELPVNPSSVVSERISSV

[17] = biological target: Histamine H2 receptor (Homo sapiens, UniProt P25021); details: Compound concentration 10.0 uM
[18] = biological target: Sigma non-opioid intracellular receptor 1 (Homo sapiens) (UniProt Q99720); details: Compound concentration 10.0 uM
[19] = biological target: D(1A) dopamine receptor (Homo sapiens, UniProt P21728); details: Compound concentration 10.0 uM
[20] = biological target: Alpha-1B adrenergic receptor (Homo sapiens) (UniProt P35368); details: Compound concentration 10.0 uM
[21] = biological target: Kappa-type opioid receptor (Homo sapiens, UniProt P41145); details: Compound concentration 10.0 uM
[22] = biological target: Alpha-2B adrenergic receptor (Homo sapiens) (UniProt P18089); details: Compound concentration 10.0 uM
[23] = biological target: GABA-A receptor; anion channel (Rattus norvegicus) (UniProt O09028+P15431+P18506+P18508+P19969+P20236+P23574+P23576+P28471+P28473+P30191+P62813+P63079+P63138+Q91ZM7+Q9ES14); details: Compound concentration 10.0 uM
[24] = biological target: Alpha-2A adrenergic receptor (Homo sapiens) (UniProt P08913); details: Compound concentration 10.0 uM
[25] = species on record: Rattus norvegicus; details: Compound concentration 10.0 uM
[26] = biological target: Mu-type opioid receptor (Homo sapiens, UniProt P35372); details: Compound concentration 10.0 uM
[27] = biological target: 5-hydroxytryptamine receptor 3A (Homo sapiens) (UniProt P46098); details: Compound concentration 10.0 uM
[28] = biological target: Beta-1 adrenergic receptor (Homo sapiens, UniProt P08588); details: Compound concentration 10.0 uM
Chain of Beta-1 adrenergic receptor (P08588 whole entry, looked up): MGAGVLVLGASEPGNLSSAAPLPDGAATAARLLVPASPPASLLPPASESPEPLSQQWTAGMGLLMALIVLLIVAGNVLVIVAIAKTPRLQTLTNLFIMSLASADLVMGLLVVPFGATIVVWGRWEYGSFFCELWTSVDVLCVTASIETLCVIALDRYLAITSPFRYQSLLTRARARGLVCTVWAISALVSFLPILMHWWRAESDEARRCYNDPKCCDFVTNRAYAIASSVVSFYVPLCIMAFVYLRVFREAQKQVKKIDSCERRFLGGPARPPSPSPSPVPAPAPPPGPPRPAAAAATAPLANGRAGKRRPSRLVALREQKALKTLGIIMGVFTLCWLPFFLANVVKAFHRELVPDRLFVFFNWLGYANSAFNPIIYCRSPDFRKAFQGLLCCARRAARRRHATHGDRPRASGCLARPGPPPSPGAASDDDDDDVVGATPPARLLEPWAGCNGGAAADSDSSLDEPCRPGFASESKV

[29] = biological target: Delta-type opioid receptor (Homo sapiens, UniProt P41143); details: Compound concentration 10.0 uM
[30] = biological target: D(2) dopamine receptor (Homo sapiens, UniProt P14416); details: Compound concentration 10.0 uM
[31] = biological target: 5-hydroxytryptamine receptor 1B (Homo sapiens, UniProt P28222); details: Compound concentration 10.0 uM
[32] = biological target: 5-hydroxytryptamine receptor 1E (Homo sapiens) (UniProt P28566); details: Compound concentration 10.0 uM
Chain of 5-hydroxytryptamine receptor 1E (Homo sapiens) (P28566 whole entry): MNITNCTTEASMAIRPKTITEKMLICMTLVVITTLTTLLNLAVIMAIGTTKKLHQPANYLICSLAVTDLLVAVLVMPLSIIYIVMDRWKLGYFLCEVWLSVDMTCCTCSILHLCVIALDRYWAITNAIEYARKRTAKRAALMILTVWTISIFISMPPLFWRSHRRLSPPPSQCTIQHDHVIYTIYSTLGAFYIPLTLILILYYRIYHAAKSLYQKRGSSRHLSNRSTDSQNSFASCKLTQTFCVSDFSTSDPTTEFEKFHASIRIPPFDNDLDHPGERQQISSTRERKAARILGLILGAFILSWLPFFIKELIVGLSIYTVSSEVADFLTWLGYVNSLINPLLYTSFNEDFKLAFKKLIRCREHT

[33] = biological target: Sodium-dependent serotonin transporter (Homo sapiens, UniProt P31645); details: Compound concentration 10.0 uM
[34] = biological target: Sodium-dependent noradrenaline transporter (Homo sapiens, UniProt P23975); details: Compound concentration 10.0 uM
[35] = biological target: 5-hydroxytryptamine receptor 6 (Homo sapiens) (UniProt P50406); details: Compound concentration 10.0 uM
[36] = biological target: Alpha-2C adrenergic receptor (Homo sapiens) (UniProt P18825); details: Compound concentration 10.0 uM
[37] = biological target: T1, Sodium-dependent dopamine transporter; assay: GPCRScan assay: inhibition of DAT; design: radioligand conc. used [nm] 3.6 – 16.0, parental cells stable HEK
[38] = AMPA receptor scintillation proximity binding assay; design: species or system Homo sapiens
[39] = biological target: Glutamate receptor ionotropic, NMDA 2A (Homo sapiens, UniProt Q05586+Q12879); assay: GluN2A-containing NMDA receptor (Ca2+ influx) assay (EC50)
Chain of Glutamate receptor ionotropic, NMDA 2A (Q12879 whole entry, one chain of several): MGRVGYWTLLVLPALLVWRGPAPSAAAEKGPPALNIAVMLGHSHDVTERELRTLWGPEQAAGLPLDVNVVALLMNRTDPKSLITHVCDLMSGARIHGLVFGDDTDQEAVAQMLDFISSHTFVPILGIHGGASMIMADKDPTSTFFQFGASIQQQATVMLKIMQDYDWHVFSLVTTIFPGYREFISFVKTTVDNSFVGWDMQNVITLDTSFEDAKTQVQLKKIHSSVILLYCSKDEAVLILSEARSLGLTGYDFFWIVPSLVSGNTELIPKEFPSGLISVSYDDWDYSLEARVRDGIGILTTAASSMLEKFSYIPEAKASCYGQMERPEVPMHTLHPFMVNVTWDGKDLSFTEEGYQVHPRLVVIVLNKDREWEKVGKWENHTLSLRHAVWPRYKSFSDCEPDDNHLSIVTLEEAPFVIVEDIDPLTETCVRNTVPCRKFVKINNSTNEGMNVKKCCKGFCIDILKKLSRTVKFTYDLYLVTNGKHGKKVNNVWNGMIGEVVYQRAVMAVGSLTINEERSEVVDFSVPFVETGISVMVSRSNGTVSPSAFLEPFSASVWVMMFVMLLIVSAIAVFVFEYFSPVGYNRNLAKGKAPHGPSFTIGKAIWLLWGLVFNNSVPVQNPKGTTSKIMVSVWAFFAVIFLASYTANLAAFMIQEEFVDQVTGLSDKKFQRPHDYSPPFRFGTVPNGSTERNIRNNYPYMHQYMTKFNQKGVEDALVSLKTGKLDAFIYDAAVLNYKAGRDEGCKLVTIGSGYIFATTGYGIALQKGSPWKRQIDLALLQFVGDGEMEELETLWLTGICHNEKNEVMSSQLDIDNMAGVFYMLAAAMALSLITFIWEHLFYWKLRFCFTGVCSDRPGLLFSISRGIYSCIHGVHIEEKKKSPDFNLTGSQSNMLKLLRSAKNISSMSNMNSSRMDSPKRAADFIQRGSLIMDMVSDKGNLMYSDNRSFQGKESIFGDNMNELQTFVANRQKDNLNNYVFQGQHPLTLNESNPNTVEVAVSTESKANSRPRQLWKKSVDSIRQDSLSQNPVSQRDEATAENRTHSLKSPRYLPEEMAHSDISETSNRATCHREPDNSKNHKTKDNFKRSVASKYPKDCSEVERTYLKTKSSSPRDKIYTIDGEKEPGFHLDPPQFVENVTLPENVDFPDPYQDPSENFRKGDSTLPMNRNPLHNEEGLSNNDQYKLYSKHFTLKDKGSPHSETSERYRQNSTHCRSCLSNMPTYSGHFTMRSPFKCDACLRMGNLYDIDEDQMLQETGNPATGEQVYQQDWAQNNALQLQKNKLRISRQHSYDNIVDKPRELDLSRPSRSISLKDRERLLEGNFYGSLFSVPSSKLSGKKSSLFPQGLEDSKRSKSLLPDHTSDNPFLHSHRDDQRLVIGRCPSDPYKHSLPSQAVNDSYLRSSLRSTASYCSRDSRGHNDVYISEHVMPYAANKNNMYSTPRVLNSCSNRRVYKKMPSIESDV

[40] = biological target: Histamine H1 receptor (Homo sapiens, UniProt P35367); details: Compound concentration 10.0 uM

Cc1cn([C@@H](C)CC#N)c(=O)c2cc(Cn3nc(C(F)F)cc3Cl)nn12
< 5: pKi [37]
active: inhibition [11] 57.6%
inactive: inhibition [1] -6.45% | inhibition [2] -4.44% | inhibition [3] -9.06% | inhibition [4] 15.8% | inhibition [5] 12% | inhibition [6] -5.75% | inhibition [7] -0.32% | inhibition [8] 4.06% | inhibition [9] -5.71% | inhibition [10] -8.98% | inhibition [12] 20.4% | inhibition [13] 15.5% | inhibition [14] -7.46% | inhibition [15] -5.14% | inhibition [16] -9.2% | inhibition [17] 7.11% | inhibition [18] 33.4% | inhibition [19] -0.9% | inhibition [20] 1.49% | inhibition [21] 22.6% | inhibition [22] 1.85% | inhibition [23] 1.81% | inhibition [24] 19% | inhibition [25] 21.3% | inhibition [26] -0.1% | inhibition [27] -1.27% | inhibition [28] -0.27% | inhibition [29] -8.09% | inhibition [30] 5.88% | inhibition [31] 27.7% | inhibition [32] 3.73% | inhibition [33] 0.68% | inhibition [34] -2.17% | inhibition [35] -6.08% | inhibition [36] -9.92% | inhibition [40] -2.74%
> 10 µM: Ki ([37]; read-out: Ki)
> 30 µM (not active): IC50 [38] | EC50 [39]
